In PubChem BioAssay (NCI):
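Growth conditions: 96-well plates. Treatment: test compound, 48 hours, 5 concentrations. Analysis: linear interpolation between bracketing concentrations; unreached endpoints set to highest concentration. The concentration for 50% growth inhibition is given as GI50. At the TGI there is no net growth.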

Columns and labels:
Test in all cases: DTP human tumour cell line panel, 48 h
U251 CNS = tested on: U251 CNS
ACHN renal = tested on: ACHN renal
HOP-62 NSCLC = tested on: HOP-62 NSCLC
A549 NSCLC = tested on: A549 NSCLC
SK-OV-3 ovarian = tested on: SK-OV-3 ovarian
HS 578T breast = tested on: HS 578T breast
SR leukemia = tested on: SR leukemia
UACC-257 melanoma = tested on: UACC-257 melanoma

SMILES	TGI (U251 CNS) [µM]	TGI (ACHN renal) [µM]	TGI (HOP-62 NSCLC) [µM]	TGI (A549 NSCLC) [µM]	TGI (SK-OV-3 ovarian) [µM]	TGI (HS 578T breast) [µM]	TGI (SR leukemia) [µM]	TGI (UACC-257 melanoma) [µM]	GI50 (U251 CNS) [µM]	GI50 (ACHN renal) [µM]	GI50 (HOP-62 NSCLC) [µM]	GI50 (A549 NSCLC) [µM]	GI50 (SK-OV-3 ovarian) [µM]	GI50 (HS 578T breast) [µM]	GI50 (SR leukemia) [µM]	GI50 (UACC-257 melanoma) [µM]
COc1cc(-c2oc3c(OC)c(O)c(OC)c(O)c3c(=O)c2OC)cc(OC)c1OC	> 100	> 100	> 100	> 100	> 100	64.9	> 100	> 100	–	–	–	–	–	–	–	–
C=C(C)COc1ccc2c(c1)CCC1C2CCC2(C)C(=O)/C(=N/O)CC12 (stereo not drawn)	16.3	15.2	21.2	26.4	22.4	27.7	4.14	23.5	–	–	–	–	–	–	–	–
COc1ccc2c(c1)OCC1c3cc(OC)c4ccccc4c3OC21 (stereo not drawn)	67	> 100	> 100	> 100	> 100	37	16.6	> 100	9.95	27.4	14.7	15.8	15.9	11.3	3.89	35.5
CCCCCOC(=O)Nc1nc(=O)n(C2OC(C)C(O)C2O)cc1F (stereo not drawn)	> 10000	–	> 10000	–	> 10000	–	–	> 10000	> 10000	–	> 10000	–	> 10000	–	–	> 10000
O=C1CCc2cc(Br)ccc2O1	> 100	> 100	> 100	> 100	–	> 100	> 100	> 100	–	–	–	–	–	–	–	–
Clc1nc(Cl)c2ncn(-c3ccccc3)c2n1	3.73	4.12	–	29.8	25	64.9	9.51	20.2	1.8	1.96	–	12.9	12.5	7.13	2.73	6.86
COc1ccc(-c2nc3sccn3c2-c2ccnc(NCCNS(=O)(=O)c3ccc(C(F)(F)F)cc3)n2)cc1	> 100	> 100	> 100	> 100	> 100	> 100	> 100	> 100	4.45	2.58	13.7	3.98	4.44	2.35	0.972	4.41
Nc1nc(N)c2cc(S(=O)(=O)c3ccc4ccccc4c3)ccc2n1	23.6	> 100	30.3	> 100	> 81.8	> 73.8	> 100	2.67	–	–	–	–	–	–	> 100	–
Cc1ccc(NC(=S)NNC(=S)Nc2ccc(C)cc2)cc1	> 100	> 100	–	> 100	> 100	> 100	–	> 100	5.16	9.7	–	6.03	17.3	4.6	–	7.13
NS(=O)(=O)c1ccc(N=Nc2c(O)[nH]c3ccc(C(=O)NCCCn4ccnc4)cc23)cc1	> 25	> 25	> 25	> 25	> 25	> 25	> 25	> 25	> 25	> 25	> 25	> 25	> 25	> 25	> 25	> 25
CCCCCCCCCCCCCCCC(=O)NS(=O)(=O)OC[C@H]1O[C@@H](n2cnc3c(N)ncnc32)[C@H](O)[C@@H]1O	< 0.0277	1.64	–	3.82	1.15	6.04	4.38	1.47	< 0.0162	–	< 0.0198	1.67	0.278	0.982	< 0.021	0.333
CCN1CCN(Cc2ccc(Nc3ncc(F)c(-c4cc(F)c5nc(C)n(C(C)C)c5c4)n3)nc2)CC1	11.6	9.56	13.8	11.9	11.7	15.3	6.92	7.97	0.317	0.172	6.68	0.411	3.22	0.745	0.101	5.45
Cc1cc(S(=O)(=O)Nc2nc3ccccc3c(=O)n2Cc2ccco2)c(S)cc1Cl	> 100	> 100	69.6	> 100	–	> 100	40.7	> 100	45.8	49.8	32.8	48	–	30.5	19.5	> 100
c1cc[n+](Cc2c3ccccc3cc3c2ccc2ccccc23)cc1	6.37	> 100	11.7	27.7	59.1	8.65	11.6	5.48	1.1	> 100	2.41	7.31	13.6	1.96	2.64	2.34
COc1ccc(-c2cc(=O)c3c(OC)c4ccoc4c(/C=C/C=O)c3o2)cc1	10.3	> 100	11.1	72.4	23	> 100	–	14.2	2.53	19.3	2.98	18.5	4.73	10.4	–	3.63
CSC1=CC(=O)c2ccccc2C1=O	23.8	3.07	31.8	64.8	32.1	–	8.98	4.36	11	1.66	16.7	24.2	18.2	–	3.11	2.04
CS(=O)(=O)Nc1cc(-c2ccc3ncc(C#N)c(Nc4ccc(F)c(Cl)c4)c3c2)cnc1Cl	1.19	> 100	8.42	3.12	0.731	0.798	1.12	2.14	0.098	0.304	0.195	0.468	0.194	0.131	0.161	0.194

SMILES	TGI (U251 CNS) [µM]	TGI (ACHN renal) [µM]	TGI (HOP-62 NSCLC) [µM]	TGI (A549 NSCLC) [µM]	TGI (SK-OV-3 ovarian) [µM]	TGI (HS 578T breast) [µM]	TGI (SR leukemia) [µM]	TGI (UACC-257 melanoma) [µM]	GI50 (U251 CNS) [µM]	GI50 (ACHN renal) [µM]	GI50 (HOP-62 NSCLC) [µM]	GI50 (A549 NSCLC) [µM]	GI50 (SK-OV-3 ovarian) [µM]	GI50 (HS 578T breast) [µM]	GI50 (SR leukemia) [µM]	GI50 (UACC-257 melanoma) [µM]
C[n+]1cccc(NC(=O)c2ccc3ccc4ccc(C(=O)Nc5ccc[n+](C)c5)nc4c3n2)c1	> 100	> 100	97.5	> 100	12.5	> 68.6	–	> 100	2.23	4.75	1.83	0.155	1.97	4.51	–	> 100
CC(C)c1cnc(-c2cc(Cl)ccc2F)cc1Nc1ccncc1C(=O)NC(CO)CO	33.9	29	32.9	62.3	55.5	30.6	53.7	33.7	14.9	11.1	12.8	11.1	19.8	7.31	16.2	16.3
Cc1ccc(C2=NN(c3ccc(S(=O)(=O)NC(=O)NCc4ccccc4)cc3)C(c3ccc(N(C)C)cc3)C2)c(C)c1 (stereo not drawn)	16	> 100	28	16.4	> 100	7.02	–	> 100	3.53	3.97	5.69	3.46	8.43	2.48	–	4.64
CCCCCc1cc(/C=C2/N=C(c3ccc[nH]3)C=C2OC)[nH]c1C	0.153	0.113	0.362	1.19	1.13	0.0191	–	0.855	–	–	–	–	–	–	–	–
COc1cc(/C=C2\CC3C4CCC5=CC(=O)CC[C@]5(C)C4CC[C@]3(C)C2=O)ccc1OCCN1CCCC1 (stereo partly drawn)	10.1	9.16	6.11	> 100	16.8	8.87	–	6.15	2.86	2.94	2.33	4.45	4.56	3.22	–	2.5
COc1ccc(N=Nc2ccc(O)c(=O)cc2)cc1	> 100	> 100	41.8	> 100	> 100	> 100	> 100	> 100	3.2	3.37	4.19	3.02	4.58	4.41	3.79	3.12
Cc1[nH]c(C(=O)Nc2cccc(OC3CCNCC3)c2)c(Cl)c1Cl	4.19	3.17	4.53	4.17	5.09	5.16	5.09	3.55	1.93	1.75	1.9	2.04	2.07	2.02	2.02	1.76
Nc1c(C(=O)Nc2cccc(Cl)c2)sc2nc3c(cc12)C(O)CCC3 (stereo not drawn)	13.6	23.4	23.9	17.4	22.2	> 74	28.6	–	0.379	1.04	0.569	0.465	0.534	1.62	0.258	–
CCOC(=O)C1=C(C)NC2SC(=O)/C(=C\c3cccc(Cl)c3)N2C1c1ccccc1 (stereo not drawn)	> 100	> 100	> 100	> 100	> 100	> 100	–	> 100	> 100	> 100	> 100	> 100	> 100	90.4	–	> 100
Cc1ccc2ncnc(N(C)C3CCCCC3)c2c1	> 100	> 100	> 100	44.2	> 100	> 100	44.9	–	59.7	29	28.7	16.1	33.2	> 100	17.4	–
CC1(C)N=C(N)N=C(N)N1c1ccc(OCC(=O)Nc2ccc(S(=O)(=O)F)cc2Cl)c(Cl)c1	> 100	> 100	> 100	> 100	> 100	–	> 100	> 100	5.73	5.57	7.81	2.5	> 100	–	0.82	> 100
NC(=O)c1c[nH]c2ncnc(N)c12	> 100	> 100	> 100	> 100	83	> 100	–	> 100	> 100	44.1	53.3	> 100	25.9	36.4	–	> 100
CC(C)[C@@]12C[C@@H](OC(=O)COC(=O)c3ccccc3)[C@@](C)(O1)[C@@H]1CC[C@@H](C)[C@H]1[C@@H]2OC(=O)/C=C/c1ccccc1	> 100	–	> 100	> 100	> 100	0.0701	–	> 100	> 100	0.0469	> 100	> 100	> 100	0.0135	–	> 100
CC(=O)OC(COc1ccc2c(c1)[n+]([O-])nc(N)[n+]2[O-])CN1CCCCC1 (stereo not drawn)	43	39.3	–	40.7	–	–	70.1	29.1	–	–	–	–	–	–	–	–
CNC(=O)/C=C/C1=CN2C(=O)c3ccc(C)c(O)c3NC(OC)C2C1 (stereo not drawn)	1.67	–	0.328	> 100	> 8.66	< 0.0264	0.0598	< 0.0169	–	–	–	–	–	–	–	–
CO/N=C(/C)COc1ccc2c(c1)oc(=O)c1cc(OC)ccc12	> 100	> 100	> 100	> 100	> 100	> 100	–	> 100	> 100	75	95.3	> 100	> 100	> 100	–	> 100
CC(C)n1cc(-c2ccc3c(c2)N(C)CC3)c2c(NS(=O)(=O)c3ccn(C)n3)ccnc21	> 100	> 100	> 100	> 100	> 100	> 100	–	> 100	61.9	49.8	> 100	44	> 100	37	–	> 100
